Columns and labels:
[1] = system: Herpes simplex II virus; experiment: Back titration plaque assay: PFU counts at stated amounts of compound under test and arginine; assay type: cell-based, Herpes simplex II virus (BSC cells)
Experimental: The following experiments were conducted by back titration: Herpes simplex II virus from laboratory stocks was used. BSC cells were grown to confluence in Eagles medium with 15% fetal calf serum, 150 units per milliliter of penicillin and 100 micrograms per milliliter of streptomycin. The cultures were inoculated with 500 PFU of HS II. The virons were allowed to absorb for one hour at 25° C. The tissue cultures were then washed three times with sterile PBS to remove excess media and non-absorbed virons. The cells were then incubated at 37° C. until four-plus cytopathic effects were observed. The cells were then disrupted by slow freeze-thaw two times. The suspension was then clarified by slow speed centrifugation at 4° C. The supemanant suspension was then added to confluent BSC cultures. After one hour absorption, the cells were washed with PBS twice. The cells were overlaid in defined reagent (in triplicate) Eagles media in noble agar. The cells were then incubated at 37° C. until the plaques were easily counted, usually 40 t 72 hours. the cells were then washed two times with PBS and then fixed with 10% H2CO and a 2% sodium acetate. The cells were then stained in 0.1% crystal violet in ethanol. In the tables which follow the concentration of the compound to be tested, in micrograms per milliliter, is listed across the top of the table and the concentration of arginine in micrograms per milliliter is listed down the left side of the table, the count of plaque-forming units being shown in the matrix.

[2] = system: HSV, Type II; experiment: Direct plaque-forming unit (PFU) count in BSC cells in defined media with set lysine (or derivative):arginine ratio; assay type: cell-based; conditions: average of three tests
Experimental: Absorbed virons were absorbed in susceptible cells in chemically defined media and the number of plaques made were counted. (See Davis, B. D., et al., Microbiology, 2nd Ed., Harper & Row, 1973, Part V, and sources cited therein for procedural details and discussion of the plaque method.)
The cell line chosen was green monkey kidney cells (BSC) that have been passed greater than 41 times. […] The virons were added to a confluent lawn of BSC cells and allowed to absorb at 25° C. for one hour. The unabsorbed virons and the media were removed by washing three times in PBS. […] The control media contained a lysine/arginine ratio of 1:1. The plaques were counted when easily readable. Flasks are done in triplicate.

[3] = compound 10 μg/ml, arginine 0 μg/ml
[4] = compound 10 μg/ml, arginine 2.5 μg/ml
[5] = compound 10 μg/ml, arginine 5.0 μg/ml
[6] = compound 10 μg/ml, arginine 7.5 μg/ml
[7] = compound 10 μg/ml, arginine 10 μg/ml
[8] = compound 10 μg/ml, arginine 15 μg/ml
[9] = compound 10 μg/ml, arginine 20 μg/ml
[10] = compound 10 μg/ml, arginine 25 μg/ml
[11] = compound 25 μg/ml, arginine 0 μg/ml
[12] = compound 25 μg/ml, arginine 2.5 μg/ml
[13] = compound 25 μg/ml, arginine 5.0 μg/ml
[14] = compound 25 μg/ml, arginine 7.5 μg/ml
[15] = compound 25 μg/ml, arginine 10 μg/ml
[16] = compound 25 μg/ml, arginine 15 μg/ml
[17] = compound 25 μg/ml, arginine 20 μg/ml
[18] = compound 25 μg/ml, arginine 25 μg/ml
[19] = compound 50 μg/ml, arginine 0 μg/ml
[20] = compound 50 μg/ml, arginine 2.5 μg/ml
[21] = compound 50 μg/ml, arginine 5.0 μg/ml
[22] = compound 50 μg/ml, arginine 7.5 μg/ml
[23] = compound 50 μg/ml, arginine 10 μg/ml
[24] = compound 50 μg/ml, arginine 15 μg/ml
[25] = compound 50 μg/ml, arginine 20 μg/ml
[26] = compound 50 μg/ml, arginine 25 μg/ml
[27] = compound 100 μg/ml, arginine 0 μg/ml
[28] = compound 100 μg/ml, arginine 2.5 μg/ml
[29] = compound 100 μg/ml, arginine 5.0 μg/ml
[30] = compound 100 μg/ml, arginine 7.5 μg/ml
[31] = compound 100 μg/ml, arginine 10 μg/ml
[32] = compound 100 μg/ml, arginine 15 μg/ml
[33] = compound 100 μg/ml, arginine 20 μg/ml
[34] = compound 100 μg/ml, arginine 25 μg/ml
[35] = compound 200 μg/ml, arginine 0 μg/ml
[36] = compound 200 μg/ml, arginine 2.5 μg/ml
[37] = compound 200 μg/ml, arginine 5.0 μg/ml
[38] = compound 200 μg/ml, arginine 7.5 μg/ml
[39] = compound 200 μg/ml, arginine 10 μg/ml
[40] = compound 200 μg/ml, arginine 15 μg/ml
[41] = compound 200 μg/ml, arginine 20 μg/ml
[42] = compound 200 μg/ml, arginine 25 μg/ml
[43] = compound 300 μg/ml, arginine 0 μg/ml
[44] = compound 300 μg/ml, arginine 2.5 μg/ml
[45] = compound 300 μg/ml, arginine 5.0 μg/ml
[46] = compound 300 μg/ml, arginine 7.5 μg/ml
[47] = compound 300 μg/ml, arginine 10 μg/ml
[48] = compound 300 μg/ml, arginine 15 μg/ml
[49] = compound 300 μg/ml, arginine 20 μg/ml
[50] = compound 300 μg/ml, arginine 25 μg/ml
[51] = compound 400 μg/ml, arginine 0 μg/ml
[52] = compound 400 μg/ml, arginine 2.5 μg/ml
[53] = compound 400 μg/ml, arginine 5.0 μg/ml
[54] = compound 400 μg/ml, arginine 7.5 μg/ml
[55] = compound 400 μg/ml, arginine 10 μg/ml
[56] = compound 400 μg/ml, arginine 15 μg/ml
[57] = compound 400 μg/ml, arginine 20 μg/ml
[58] = compound 400 μg/ml, arginine 25 μg/ml
[59] = compound 500 μg/ml, arginine 0 μg/ml
[60] = compound 500 μg/ml, arginine 2.5 μg/ml
[61] = compound 500 μg/ml, arginine 5.0 μg/ml
[62] = compound 500 μg/ml, arginine 7.5 μg/ml
[63] = compound 500 μg/ml, arginine 10 μg/ml
[64] = compound 500 μg/ml, arginine 15 μg/ml
[65] = compound 500 μg/ml, arginine 20 μg/ml
[66] = compound 500 μg/ml, arginine 25 μg/ml
[67] = Compound Ratio to Arginine 10:1
[68] = Compound Ratio to Arginine 100:1

## CC(CN)CC[C@H](N)C(=O)O (stereo partly drawn) [5-Methyl lysine]
[1]; [3]
  P.F.U. Count: 30
[1]; [4]
  P.F.U. Count: 2.7 × 10^3
[1]; [5]
  P.F.U. Count: 3.7 × 10^4
[1]; [6]
  P.F.U. Count: 6.0 × 10^4
[1]; [7]
  P.F.U. Count: 7.9 × 10^4
[1]; [8]
  P.F.U. Count: 2.0 × 10^5
[1]; [9]
  P.F.U. Count: 3.0 × 10^5
[1]; [10]
  P.F.U. Count: 3.0 × 10^5
[1]; [11]
  P.F.U. Count: 0
[1]; [12]
  P.F.U. Count: 697
[1]; [13]
  P.F.U. Count: 1.4 × 10^3
[1]; [14]
  P.F.U. Count: 4.7 × 10^3
[1]; [15]
  P.F.U. Count: 6.5 × 10^4
[1]; [16]
  P.F.U. Count: 1.7 × 10^4
[1]; [17]
  P.F.U. Count: 3.1 × 10^5
[1]; [18]
  P.F.U. Count: 3.0 × 10^5
[1]; [19]
  P.F.U. Count: 0
[1]; [20]
  P.F.U. Count: 0
[1]; [21]
  P.F.U. Count: 190
[1]; [22]
  P.F.U. Count: 190
[1]; [23]
  P.F.U. Count: 1.7 × 10^3
[1]; [24]
  P.F.U. Count: 1.3 × 10^3
[1]; [25]
  P.F.U. Count: 3.0 × 10^5
[1]; [26]
  P.F.U. Count: 3.0 × 10^5
[1]; [27]
  P.F.U. Count: 0
[1]; [28]
  P.F.U. Count: 0
[1]; [29]
  P.F.U. Count: 69
[1]; [30]
  P.F.U. Count: 170
[1]; [31]
  P.F.U. Count: 656
[1]; [32]
  P.F.U. Count: 710
[1]; [33]
  P.F.U. Count: 1.2 × 10^5
[1]; [34]
  P.F.U. Count: 2.4 × 10^5
[1]; [35]
  P.F.U. Count: 0
[1]; [36]
  P.F.U. Count: 0
[1]; [37]
  P.F.U. Count: 0
[1]; [38]
  P.F.U. Count: 0
[1]; [39]
  P.F.U. Count: 79
[1]; [40]
  P.F.U. Count: 63
[1]; [41]
  P.F.U. Count: 2.7 × 10^5
[1]; [42]
  P.F.U. Count: 4.1 × 10^5
[1]; [43]
  P.F.U. Count: 0
[1]; [44]
  P.F.U. Count: 0
[1]; [45]
  P.F.U. Count: 0
[1]; [46]
  P.F.U. Count: 0
[1]; [47]
  P.F.U. Count: 0
[1]; [48]
  P.F.U. Count: 1.9 × 10^4
[1]; [49]
  P.F.U. Count: 5.6 × 10^4
[1]; [50]
  P.F.U. Count: 6.1 × 10^4
[1]; [51]
  P.F.U. Count: 0
[1]; [52]
  P.F.U. Count: 0
[1]; [53]
  P.F.U. Count: 0
[1]; [54]
  P.F.U. Count: 0
[1]; [55]
  P.F.U. Count: 0
[1]; [56]
  P.F.U. Count: 1.9 × 10^4
[1]; [57]
  P.F.U. Count: 1.7 × 10^4
[1]; [58]
  P.F.U. Count: 4.6 × 10^4
[1]; [59]
  P.F.U. Count: 0
[1]; [60]
  P.F.U. Count: 0
[1]; [61]
  P.F.U. Count: 0
[1]; [62]
  P.F.U. Count: 0
[1]; [63]
  P.F.U. Count: 0
[1]; [64]
  P.F.U. Count: 1.0 × 10^4
[1]; [65]
  P.F.U. Count: 2.3 × 10^3
[1]; [66]
  P.F.U. Count: 4.0 × 10^4
[2]; [67]
  P.F.U. Count: 79
[2]; [68]
  P.F.U. Count: 43

## CC(CCN)CC(N)C(=O)O (stereo not drawn) [4-Methyl lysine]
[1]; [3]
  P.F.U. Count: 37
[1]; [4]
  P.F.U. Count: 110
[1]; [5]
  P.F.U. Count: 3.7 × 10^3
[1]; [6]
  P.F.U. Count: 7.2 × 10^4
[1]; [7]
  P.F.U. Count: 9.6 × 10^4
[1]; [8]
  P.F.U. Count: 2.3 × 10^5
[1]; [9]
  P.F.U. Count: 3.1 × 10^5
[1]; [10]
  P.F.U. Count: 3.3 × 10^5
[1]; [11]
  P.F.U. Count: 10
[1]; [12]
  P.F.U. Count: 74
[1]; [13]
  P.F.U. Count: 310
[1]; [14]
  P.F.U. Count: 6.6 × 10^4
[1]; [15]
  P.F.U. Count: 8.7 × 10^4
[1]; [16]
  P.F.U. Count: 9.6 × 10^4
[1]; [17]
  P.F.U. Count: 3.3 × 10^5
[1]; [18]
  P.F.U. Count: 3.4 × 10^5
[1]; [19]
  P.F.U. Count: 0
[1]; [20]
  P.F.U. Count: 0
[1]; [21]
  P.F.U. Count: 671
[1]; [22]
  P.F.U. Count: 5.0 × 10^4
[1]; [23]
  P.F.U. Count: 7.0 × 10^4
[1]; [24]
  P.F.U. Count: 7.9 × 10^4
[1]; [25]
  P.F.U. Count: 3.1 × 10^5
[1]; [26]
  P.F.U. Count: 3.6 × 10^5
[1]; [27]
  P.F.U. Count: 0
[1]; [28]
  P.F.U. Count: 0
[1]; [29]
  P.F.U. Count: 371
[1]; [30]
  P.F.U. Count: 4.2 × 10^4
[1]; [31]
  P.F.U. Count: 4.0 × 10^7
[1]; [32]
  P.F.U. Count: 5.0 × 10^4
[1]; [33]
  P.F.U. Count: 3.6 × 10^5
[1]; [34]
  P.F.U. Count: 3.1 × 10^5
[1]; [35]
  P.F.U. Count: 0
[1]; [36]
  P.F.U. Count: 0
[1]; [37]
  P.F.U. Count: 191
[1]; [38]
  P.F.U. Count: 1.0 × 10^4
[1]; [39]
  P.F.U. Count: 1.8 × 10^4
[1]; [40]
  P.F.U. Count: 6.8 × 10^4
[1]; [41]
  P.F.U. Count: 3.2 × 10^5
[1]; [42]
  P.F.U. Count: 3.0 × 10^5
[1]; [43]
  P.F.U. Count: 0
[1]; [44]
  P.F.U. Count: 0
[1]; [45]
  P.F.U. Count: 169
[1]; [46]
  P.F.U. Count: 1.1 × 10^7
[1]; [47]
  P.F.U. Count: 1.9 × 10^4
[1]; [48]
  P.F.U. Count: 2.7 × 10^4
[1]; [49]
  P.F.U. Count: 3.1 × 10^5
[1]; [50]
  P.F.U. Count: 3.3 × 10^5
[1]; [51]
  P.F.U. Count: 0
[1]; [52]
  P.F.U. Count: 0
[1]; [53]
  P.F.U. Count: 671
[1]; [54]
  P.F.U. Count: 1.9 × 10^3
[1]; [55]
  P.F.U. Count: 1.7 × 10^4
[1]; [56]
  P.F.U. Count: 2.0 × 10^4
[1]; [57]
  P.F.U. Count: 3.0 × 10^5
[1]; [58]
  P.F.U. Count: 3.3 × 10^5
[1]; [59]
  P.F.U. Count: 0
[1]; [60]
  P.F.U. Count: 0
[1]; [61]
  P.F.U. Count: 239
[1]; [62]
  P.F.U. Count: 6.7 × 10^3
[1]; [63]
  P.F.U. Count: 1.3 × 10^4
[1]; [64]
  P.F.U. Count: 1.4 × 10^4
[1]; [65]
  P.F.U. Count: 2.4 × 10^5
[1]; [66]
  P.F.U. Count: 2.9 × 10^5
[2]; [67]
  P.F.U. Count: 541
[2]; [68]
  P.F.U. Count: 140
